The source of these data is patent publication US9034891B2, “Bicyclic heterocyclic spiro compounds” (ISRAEL INSTITUTE FOR BIOLOGICAL RESEARCH, priority 2009, dated 2015).

In general, Kd refers to the equilibrium constant for the complex coming apart.

Assay [1] addresses T1, M1 mAChR (Homo sapiens, UniProt P11229).
T1 sequence (P11229 1-460): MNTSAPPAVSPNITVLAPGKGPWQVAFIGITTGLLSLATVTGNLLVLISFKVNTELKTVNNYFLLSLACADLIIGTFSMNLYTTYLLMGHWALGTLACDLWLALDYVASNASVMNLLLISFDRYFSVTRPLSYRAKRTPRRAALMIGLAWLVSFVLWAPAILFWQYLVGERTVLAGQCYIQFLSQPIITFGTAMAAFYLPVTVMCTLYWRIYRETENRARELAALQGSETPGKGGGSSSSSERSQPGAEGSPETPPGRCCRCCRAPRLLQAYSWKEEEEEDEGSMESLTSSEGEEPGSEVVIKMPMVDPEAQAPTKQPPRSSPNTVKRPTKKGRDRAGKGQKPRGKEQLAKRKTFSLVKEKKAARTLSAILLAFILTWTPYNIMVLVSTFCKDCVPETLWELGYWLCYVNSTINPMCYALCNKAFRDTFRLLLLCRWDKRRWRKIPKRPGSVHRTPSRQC
Kind of assay: Intracellular Ca2+ mobilization (Fluo-4 NW) in cells stably transfected with M1 mAChR. The following applies: for activity at 100 µM: remaining carbachol-induced effect, read-out: Antagonist at 100 μM on M1 mAChR inhibiting carbachol-induced effects from 100% to; for Kd: read-out: Effects on M1 mAChR: antagonist, Kd; for M1 agonist at 100 μM vs. carbachol (full muscarinic agonist, 100%): mobilization of intracellular Ca ions. In kind it is cell-based. Further details: expressed in transfected cells. The source says:
On the day of experiment, cells were fully confluent.
To evaluate selectivity for a subtype of mAChR, in particular the M1 mAChR vs. M3 and MS mAChR, the assays were calibrated using ligands that have a combined activity, e.g. M1 agonistic and M3 antagonistic or M1 agonistic and MS antagonistic profiles, respectively. This can eliminate effects due to different receptor reserves in cell-based assays.

A further assay relates to rats. Put plainly: Passive avoidance, MK-801-induced impairment in rats. In kind it is in vivo, rat. Conditions: sc, retention 24 h later. An excerpt:
(§1) Trihexyphenidyl is a selective M1 muscarinic antagonist that crosses the blood brain barrier and induces memory and learning impairments (Bymaster et al., J Pharmacol Exp. Ther. 267: 16-24, 1993; Roldan et al., Neurosci. Lett. 230: 93-96, 1997; Kimura et al., Brain Res. 834: 6-12, 1999). […] Naive Wistar rats were used in the experiments below. The passive avoidance (PA) task consists of a training (acquisition) phase and a retention phase. In the training procedure each rat was individually placed in the small illuminated compartment and after 60 s. of familiarization/adaptation, the door to the large compartment was opened and the latency to enter was measured (Initial Latency) Immediately following entry into the dark compartment, the door was closed and inescapable foot shock (0.6 mA for 3 s) was delivered through the grid floor. […] After the acquisition trial the rat was returned to its home cage. Retention of the passive avoidance task was measured 24 h later, by again placing the rat in the light compartment and after a 60 s adaptation interval, the door was opened and the latency to re-enter the dark compartment was measured. […] Two separate experiments were conducted. […] In both experiments the rats were divided into 2 groups. One main group was treated with trihexyphenidyl (5 mg/kg, s.c) and the second main group was treated with vehicle (DDW-1 ml/kg, s.c.), 30 min before the shock.
MK-801 is an NMDA antagonist that induces cognitive behavioral impairments in rodents. […] In the first experiment (dose-finding study of MK-801) rats were divided into 4 groups. Three groups (N=27) were treated with MK-801 (50, 80 or 100 μg/kg, s.c) and the fourth group (N=10) was treated with vehicle (saline-1 ml/kg, s.c.), 30 min before the shock. […] One group (N=80) was treated with MK-801 (80 μg/kg, s.c) and the second group (N=59) was treated with the vehicle (saline-1 ml/kg, s.c.).

For another assay, the system named is Wistar rats. Kind of assay: Passive avoidance, trihexyphenidyl-induced memory impairment in rats. In kind it is in vivo, rat. Conditions: NE-100 1 mg/kg alone.
Excerpt: as §1
In a further extension of these studies, retention of the passive avoidance task was measured 72 h later, by again placing the rat in the light compartment and after a 60 s adaptation interval, the door was opened and the latency to re-enter the dark compartment was measured. A cutoff point of 600 s was used for retention latency. […] Rats were divided into 2 groups. One group (N=30) was treated with trihexyphenidyl (5 mg/kg, s.c) and the second group (N=29) was treated with vehicle (DDW-1 ml/kg, s.c.), 30 min before the shock.

The next assay concerns PC12M1 cells. Put plainly: Mitochondrial apoptosis pathway, Bax and Bcl-2 immunoreactivity in PC12M1 cells.
In assay [2] the target is T1, M1 mAChR. Kind of assay: αAPPs secretion in CHO cells double transfected with human APP695 and human M1 mAChR. Conditions: doubly-transfected CHO cells; AF710B at 0.01 μM, AF710 at 0.1 μM, AF710A at 1 μM. In kind it is cell-based. As to the method: α-APPs Secretion studies following incubation with the tested compounds were performed as described in Haring, et al. J. Neurochem., 1998, 71:2094-103. […] A day later, cells were washed twice with serum free media, and treated with the test compound at various concentrations ranging from 0.1 nM to 100 μM. […] After 1 hour the conditioned medium was collected to cold Eppendorf tubes, which included a protease inhibitor cocktail (0.1 mM phenylmethylsulphonyl fluoride (PMSF); 5 μg/ml leupeptin; 5 μg/ml pepstatin and 5 units/ml aprotinin) for determining αAPPs release. The protein content of each sample was concentrated using Centricon tubes (Amicon, Beverly, Mass.). […] CHO cells double transfected with human APP695 and M1 mAChR APPs bands were probed using anti-amyloid beta protein (1:1000, monoclonal 6E10 antibody, MAB1560, Chemicon) and peroxidase-linked rabbit anti mouse IgG (1:5,000; Jackson Immuno Research, PA). PC12 cells stably transfected with M1 mAChR APPs bands were probed using the anti-Alzheimer precursor protein A4 (1:4,000; monoclonal 22C11 antibody, Boehringer Mannheim) and the peroxidase-linked rabbit anti mouse IgG (1:20,000; Jackson Immuno Research, PA). Following extensive washout, the membranes were treated with Western Lightning Chemiluminescence Reagent Plus (PerkinElmer Life Sciences, MA) followed by exposure to SuperRX film (Fuji Medical X-ray film, Tokyo, Japan). Quantitative determination of the total APPs bands was performed by Scion Image program (NIH, Bethesda, USA). Samples of control and CCh were assayed in parallel and thus enabled compilation of data from separate experiments.

Description for PC12M1 cells: These cells were partially differentiated (2-3 days), as observed under microscope. […] The pellet (rich mitochondrial fraction) was re-suspended with 200 μl Ripa buffer and lysed by rapid passage through a syringe needle (23G) for five to six times. The lysate was then used for further evaluation.
Bands were probed using the Rabbit Bax antibody (1:1000, Cell signaling, Cat. No. 2772) and Rabbit Bcl-2 antibody (1:1000, Cell signaling, Cat. No. 2870) followed by anti rabbit IgG (H&L) HRP (1:5,000, Jackson Immuno Research, 111-035-144).

For `CCCC(CCC)C(=O)N1CC2(CCN(C)CC2)SC1C` (centres unmarked) [AF717, 1-(2,8-dimethyl-1-thia-3,8-diazaspiro[4.5]dec-3-yl)-2-propylpentan-1-one], the activity at 100 µM on M1 mAChR [1] is under 25%.
In the case of `CC1SC2(CCN(C)CC2)CN1C(=O)/C=C/c1c[nH]c2ccccc12` (centres unmarked) [AF727, (E)-1-(2,8-dimethyl-1-thia-3,8-diaza-spiro[4.5]dec-3-yl)-3-(1H-indol-3-yl)-propenone], the Kd at M1 mAChR [1] was determined as 8.7 µM.
Consider `CCCC(CCC)C(=O)N1CC2(CCN(C)CC2)OC1C` (centres unmarked) [AF712, 1-(2,8-dimethyl-1-oxa-3,8-diaza-spiro[4.5]dec-3-yl)-2-propyl-pentan-1-one], for which, on M1 mAChR [1], the Kd stood at 22.6 µM.
With `C[C@]12N[C@H](Cc3ccccc31)c1ccccc12` [MK-801, reference compound], the “retention performance, dose-finding” value in the assay on rats (50 μg/kg) is reported as “ineffective”; in the assay with rats (80 and 100 μg/kg), “impaired retention performance”.
On to `CCCN(CCC)CCc1ccc(OC)c(OCCc2ccccc2)c1` [NE-100, reference compound], for which the “inducing deficits in the PA task, alone” value in the assay on Wistar rats is “not significantly effective”. Besides, in the assay on PC12M1 cells (NGF deprivation), the “effect of sigma-1 antagonist on AF710B-mediated decrease of Bax elevation” value is listed as “blocked these AF710B-mediated effects”.
On to `CC1OC2(CCN(C)CC2)C2C1N2C(=O)CCc1c[nH]c2ccccc12` (centres unmarked) [AF718C, 1′,4-dimethyl-6-(3-indolpropionyl)-spiro-(3-oxa-6-aza-bicyclo[3.1.0]-hexane-2,4′-piperidine)], for which the “M1 agonist at 100 μM vs. carbachol (full muscarinic agonist, 100%)” value (shortened to “M1 agonist … (full muscarinic agonist, 100%)”) on M1 mAChR [1] is 43%.
For the molecule `C[N+](C)(C)CCOC(N)=O` [carbachol, reference compound], the “Aβ 25-35 induced neurotoxicity expressed as Bax/Bcl2” value in the assay with PC12M1 cells (PC12M1 cells, 1 μM) was 29%±11.
`CC1OC2(CCN(C)CC2)CC1NC(=O)CCc1c[nH]c2ccccc12` (single isomer, unassigned) [AF730, N-(2,8-dimethyl-1-oxa-8-aza-spiro[4.5]dec-3-yl)-3-(1H-indol-3-yl)-propionamide]: the “M1 agonist … (full muscarinic agonist, 100%)” value on M1 mAChR [1] is 40%.
Regarding `CC1SC2(CCN(C)CC2)CN1C(=O)CCCc1c[nH]c2ccccc12` (centres unmarked) [AF725], the activity at 100 µM on M1 mAChR [1] was under 50%.
For `CC1OC2(CCN(C)CC2)CN1C(=O)CCc1c[nH]c2ccccc12` (single isomer, unassigned) [AF711A], at M1 mAChR [1], the “M1 agonist … (full muscarinic agonist, 100%)” value came out at 45%.
As to `CC1SC2(CCN(C)CC2)CN1S(=O)(=O)c1ccc(F)cc1` (centres unmarked) [AF716, 3-(4-fluorobenzenesulfonyl)-2,8-dimethyl-1-thia-3,8-diazaspiro[4.5]-decane], at M1 mAChR [1], the Kd worked out at 7.7 µM.
The same measure, in the same setting: next, `CC1CN(C(=O)CCc2c[nH]c3ccccc23)C2(CCN(C)CC2)O1` (centres unmarked) [AF706, 1-(2,8-dimethyl-1-oxa-4,8-diazaspiro[4.5]dec-4-yl)-3-(1H-indol-3-yl)-propan-1-one]: 39.7 µM; `CC1OC2(CCN(C)CC2)CN1C(=O)CCc1c[nH]c2ccccc12` (single isomer, unassigned) [AF711B]: 42 µM.
As to `CCC(=O)N1CC2(CCN(C)CC2)SC1C` (centres unmarked) [AF724, 1-(2,8-dimethyl-1-thia-3,8-diaza-spiro[4.5]dec-3-yl)-propan-1-one], the activity at 100 µM on M1 mAChR [1] was under 50%.
In the case of `CC1SC2(CCN(C)CC2)CN1C(=O)Cc1c[nH]c2ccccc12` (centres unmarked) [AF726], the Kd on M1 mAChR [1] came to 84.7 µM.
As to `CC1OC2(CCN(C)CC2)C2C1N2S(=O)(=O)c1ccc(F)cc1` (centres unmarked) [AF721, 1′,4-dimethyl-6-[3-(4-fluorobenzenesulfonyl)]-spiro-(3-oxa-6-aza-bicyclo[3.1.0]hexane-2,4′-piperidine)], at M1 mAChR [1], the “M1 agonist … (full muscarinic agonist, 100%)” value stood at 13%.
`CC1SC2(CCN(C)CC2)CN1C(=O)c1cc(C(C)(C)C)c(O)c(C(C)(C)C)c1` (centres unmarked) [AF723, (3,5-di-tert-butyl-4-hydroxy-phenyl)-(2,8-dimethyl-1-thia-3,8-diaza-spiro[4.5]dec-3-yl)-methanone]: on M1 mAChR [1], the activity at 100 µM is under 50%.
`CC1OC2(CCN(C)CC2)CC1NC(=O)CCc1c[nH]c2ccccc12` (single isomer, unassigned) [AF730 II]: the “M1 agonist … (full muscarinic agonist, 100%)” value at M1 mAChR [1] is listed as 36%.
With `CCCC(CCC)C(=O)N1CC(C)OC12CCN(C)CC2` (centres unmarked) [AF713, 1-(2,8-dimethyl-1-oxa-4,8-diaza-spiro[4.5]dec-4-yl)-2-propyl-pentan-1-one], the dissociation constant (Kd) on M1 mAChR [1] came to 113 µM.
On to `C[C@H]1SC2(CCN(C)CC2)CN1C(=O)CCc1c[nH]c2ccccc12` (single isomer, unassigned) [AF710A], for which the “maximal αAPPs secretion in comparison to untreated control cells” value on M1 mAChR [2] is 125%. The Kd on M1 mAChR [1] came out at 31 µM.
In the case of `CC1CN(S(=O)(=O)c2ccc(F)cc2)C2(CCN(C)CC2)O1` (centres unmarked) [AF714, 4-(4-fluoro-benzenesulfonyl)-2,8-dimethyl-1-oxa-4,8-diaza-spiro[4.5]-decane], the dissociation constant (Kd) on M1 mAChR [1] came out at 9.7 µM.
Consider `CC1OC2(CCN(C)CC2)C/C1=N\OC(=O)CCc1c[nH]c2ccccc12` (centres unmarked) [AF733, (3E)-2,8-dimethyl-1-oxa-8-azaspiro[4.5]decan-3-one-O—[3-(1H-indol-3-yl)propanoyl]oxime], for which the “M1 agonist … (full muscarinic agonist, 100%)” value at M1 mAChR [1] came to 90%.
For the molecule `CC1OC2(CCN(C)CC2)CN1S(=O)(=O)c1ccc(F)cc1` (centres unmarked) [AF715, 3-(4-fluorobenzenesulfonyl)-2,8-dimethyl-1-oxa-3,8-diazaspiro[4.5]-decane], the Kd at M1 mAChR [1] is 2.5 µM.
